Drawing on US20160176880A1, “SUBSTITUTED IMIDAZO[1,2-A]PYRAZINECARBOXAMIDES AND USE THEREOF” (BAYER PHARMA AKTIENGESELLSCHAFT, priority 2013, published 2016), this text covers MEC for 25 compounds.

The test concerns the target T1, recombinant guanylate cyclase reporter cell line (Rattus norvegicus, UniProt P19686+P20595).
T1 construct: expressed in transfected cells
T1 sequence (P19686 1-690): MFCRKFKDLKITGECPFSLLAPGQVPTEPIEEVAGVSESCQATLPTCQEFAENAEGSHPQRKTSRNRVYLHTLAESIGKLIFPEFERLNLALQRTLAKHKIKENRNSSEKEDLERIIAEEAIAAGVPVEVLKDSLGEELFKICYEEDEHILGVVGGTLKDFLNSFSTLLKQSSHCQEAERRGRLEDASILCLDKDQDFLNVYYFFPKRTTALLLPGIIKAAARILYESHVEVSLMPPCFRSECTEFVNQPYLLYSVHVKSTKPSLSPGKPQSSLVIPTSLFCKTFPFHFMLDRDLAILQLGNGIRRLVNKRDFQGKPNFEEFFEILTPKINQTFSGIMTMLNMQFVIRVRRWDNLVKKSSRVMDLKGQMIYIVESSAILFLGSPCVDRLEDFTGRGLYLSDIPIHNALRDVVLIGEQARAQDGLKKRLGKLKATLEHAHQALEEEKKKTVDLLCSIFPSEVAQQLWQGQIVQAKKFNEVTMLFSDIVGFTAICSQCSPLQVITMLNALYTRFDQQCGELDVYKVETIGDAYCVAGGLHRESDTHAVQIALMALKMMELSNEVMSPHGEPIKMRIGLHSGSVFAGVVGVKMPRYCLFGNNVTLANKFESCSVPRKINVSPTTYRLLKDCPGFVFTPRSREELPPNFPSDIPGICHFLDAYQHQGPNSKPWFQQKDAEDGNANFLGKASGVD
T1 sequence (P20595 1-619): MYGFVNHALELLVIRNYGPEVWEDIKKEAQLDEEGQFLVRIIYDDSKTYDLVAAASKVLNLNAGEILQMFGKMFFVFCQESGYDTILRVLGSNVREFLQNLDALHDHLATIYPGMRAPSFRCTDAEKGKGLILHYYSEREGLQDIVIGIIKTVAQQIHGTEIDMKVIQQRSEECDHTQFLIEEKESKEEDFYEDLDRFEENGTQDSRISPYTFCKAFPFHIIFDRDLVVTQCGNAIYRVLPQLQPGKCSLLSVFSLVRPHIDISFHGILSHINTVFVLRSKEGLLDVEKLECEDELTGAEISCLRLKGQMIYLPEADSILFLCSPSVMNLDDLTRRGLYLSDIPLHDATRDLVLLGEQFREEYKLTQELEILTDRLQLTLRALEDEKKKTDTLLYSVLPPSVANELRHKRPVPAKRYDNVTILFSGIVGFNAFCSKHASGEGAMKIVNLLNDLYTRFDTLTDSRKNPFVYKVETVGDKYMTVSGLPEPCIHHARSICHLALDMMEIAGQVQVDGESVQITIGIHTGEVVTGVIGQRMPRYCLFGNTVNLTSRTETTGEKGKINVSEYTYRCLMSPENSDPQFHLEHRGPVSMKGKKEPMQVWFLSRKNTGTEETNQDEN
The experiment in a line: Effect on a recombinant guanylate cyclase reporter cell line. The following applies: MEC = minimum effective concentration; in some cases mean values for individual determinations. The class given is cell-based. The method, then: B-2. Effect on a Recombinant Guanylate Cyclase Reporter Cell Line
The cellular action of the compounds of the invention is determined using a recombinant guanylate cyclase reporter cell line, as described in F. Wunder et al., Anal. Biochem. 339, 104-112 (2005).
Representative MEC values (MEC=minimum effective concentration) for the compounds of the invention are shown in the table below (in some cases as mean values for individual determinations): […]

As to `COC(=O)[C@H]1CC[C@H](CNC(=O)c2c(C)nc3c(OCc4c(F)cccc4F)nc(C)cn23)CC1` [Example 8, Methyl trans-4-{[({8-[(2,6-difluorobenzyl)oxy]-2,6-dimethylimidazoyl}carbonyl)amino]methyl}cyclohexanecarboxylate], the MEC was 1 µM.

Take `Cc1cn2c(C(=O)N[C@H]3CCNC3=O)c(C)nc2c(OCc2c(F)cccc2F)n1` [Example 9, 8-[(2,6-Difluorobenzyl)oxy]-2,6-dimethyl-N-[(3S)-2-oxopyrrolidin-3-yl]imidazo[1,2-a]pyrazine-3-carboxamide]: the MEC stood at 3 µM. Under `Cc1cn2c(C(=O)Nc3ccnc4ccc(F)cc34)c(C)nc2c(OCc2c(F)cccc2F)n1` [Example 10, 8-[(2,6-Difluorobenzyl)oxy]-N-(6-fluoroquinolin-4-yl)-2,6-dimethylimidazo[1,2-a]pyrazine-3-carboxamide] stands 0.3 µM. Turning to `Cc1cn2c(C(=O)NC[C@H]3CC[C@H](C(=O)O)CC3)c(C)nc2c(OCc2c(F)cccc2F)n1.Cl` [Example 11, trans-4-{[({8-[(2,6-Difluorobenzyl)oxy]-2,6-dimethylimidazo[1,2-a]pyrazin-3-yl}carbonyl)amino]methyl}cyclohexanecarboxylic acid hydrochloride], the MEC came out at 3 µM.

As for `Cc1cn2c(C(=O)NCCC3(O)CCCC3)c(C)nc2c(OCc2c(F)cccc2F)n1` [Example 12, 8-[(2,6-Difluorobenzyl)oxy]-N-[2-(1-hydroxycyclopentyl)ethyl]-2,6-dimethylimidazo[1,2-a]pyrazine-3-carboxamide], the MEC was determined as 1 µM. On to `Cc1cn2c(C(=O)NC3c4ccccc4CC3O)c(C)nc2c(OCc2c(F)cccc2F)n1` (stereo not shown) [Example 13, 8-[(2,6-difluorobenzyl)oxy]-N-(2-hydroxy-2,3-dihydro-1H-inden-1-yl)-2,6-dimethylimidazo[1,2-a]pyrazine-3-carboxamide], for which the MEC turned out to be 3 µM.

In the case of `CCC(N)(CC)CNC(=O)c1c(C)nc2c(OCc3c(F)cccc3F)nc(C)cn12` [Example 15, N-(2-amino-2-ethylbutyl)-8-[(2,6-difluorobenzyl)oxy]-2,6-dimethylimidazo[1,2-a]pyrazine-3-carboxamide], the MEC stood at 1 µM. Under `Cc1cn2c(C(=O)NC3CC(C)(C)NC(C)(C)C3)c(C)nc2c(OCc2c(F)cccc2F)n1` [Example 16, 8-[(2,6-difluorobenzyl)oxy]-2,6-dimethyl-N-(2,2,6,6-tetramethylpiperidin-4-yl)imidazo[1,2-a]pyrazine-3-carboxamide] stands 3 µM; under `Cc1cn2c(C(=O)Nc3c(C)nn(CCO)c3C)c(C)nc2c(OCc2c(F)cccc2F)n1` [Example 18, 8-[(2,6-difluorobenzyl)oxy]-N-[1-(2-hydroxyethyl)-3,5-dimethyl-1H-pyrazol-4-yl]-2,6-dimethylimidazo[1,2-a]pyrazine-3-carboxamide], 3 µM. Under `Cc1cn2c(C(=O)NCCN(C)C)c(C)nc2c(OCc2c(F)cccc2F)n1` [Example 19, 8-[(2,6-difluorobenzyl)oxy]-N-[2-(dimethylamino)ethyl]-2,6-dimethylimidazo[1,2-a]pyrazine-3-carboxamide] stands 3 µM; under `Cc1cn2c(C(=O)NCc3ccccc3-c3cccnc3)c(C)nc2c(OCc2c(F)cccc2F)n1` [Example 21, 8-[(2,6-difluorobenzyl)oxy]-2,6-dimethyl-N-[2-(pyridin-3-yl)benzyl]imidazo[1,2-a]pyrazine-3-carboxamide], 3 µM; under `Cc1cn2c(C(=O)NCCN3CCOCC3)c(C)nc2c(OCc2c(F)cccc2F)n1` [Example 22, 8-[(2,6-difluorobenzyl)oxy]-2,6-dimethyl-N-[2-(morpholin-4-yl)ethyl]imidazo[1,2-a]pyrazine-3-carboxamide], 3 µM.

With `Cc1cn2c(C(=O)Nc3c(C)nn(Cc4ccc(F)cc4)c3C)c(C)nc2c(OCc2c(F)cccc2F)n1` [Example 23, 8-[(2,6-difluorobenzyl)oxy]-N-[1-(4-fluorobenzyl)-3,5-dimethyl-1H-pyrazol-4-yl]-2,6-dimethylimidazo[1,2-a]pyrazine-3-carboxamide], the MEC amounted to 1 µM. For `Cc1cn2c(C(=O)Nc3cnn(CC(F)(F)F)c3)c(C)nc2c(OCc2c(F)cccc2F)n1` [Example 24, 8-[(2,6-difluorobenzyl)oxy]-2,6-dimethyl-N-[1-(2,2,2-trifluoroethyl)-1H-pyrazol-4-yl]imidazo[1,2-a]pyrazine-3-carboxamide], the MEC came out at 3 µM. Under `Cc1cn2c(C(=O)NCc3ncc[nH]3)c(C)nc2c(OCc2c(F)cccc2F)n1` [Example 25, 8-[(2,6-difluorobenzyl)oxy]-N-(1H-imidazol-2-ylmethyl)-2,6-dimethylimidazo[1,2-a]pyrazine-3-carboxamide] stands 3 µM; under `Cc1cn2c(C(=O)Nc3c(C(F)(F)F)n[nH]c3C)c(C)nc2c(OCc2c(F)cccc2F)n1` [Example 27, 8-[(2,6-difluorobenzyl)oxy]-2,6-dimethyl-N-[5-methyl-3-(trifluoromethyl)-1H-pyrazol-4-yl]imidazo[1,2-a]pyrazine-3-carboxamide], 1 µM; under `Cc1cn2c(C(=O)NCc3ccc(Cl)nc3)c(C)nc2c(OCc2c(F)cccc2F)n1` [Example 28, N-[(6-chloropyridin-3-yl)methyl]-8-[(2,6-difluorobenzyl)oxy]-2,6-dimethylimidazo[1,2-a]pyrazine-3-carboxamide], 1 µM. Under `Cc1cn2c(C(=O)Nc3cnn4ccccc34)c(C)nc2c(OCc2c(F)cccc2F)n1` [Example 30, 8-[(2,6-difluorobenzyl)oxy]-2,6-dimethyl-N-(pyrazolo[1,5-a]pyridin-3-yl)imidazo[1,2-a]pyrazine-3-carboxamide] stands 3 µM; under `Cc1cn2c(C(=O)NCC3(O)CC3)c(C)nc2c(OCc2c(F)cccc2F)n1` [Example 32, 8-[(2,6-difluorobenzyl)oxy]-N-[(1-hydroxycyclopropyl)methyl]-2,6-dimethylimidazo[1,2-a]pyrazine-3-carboxamide], 1 µM; under `Cc1cn2c(C(=O)NCCN(CC(F)F)C3CC3)c(C)nc2c(OCc2c(F)cccc2F)n1` [Example 33, N-{2-[cyclopropyl(2,2-difluoroethyl)amino]ethyl}-8-[(2,6-difluorobenzyl)oxy]-2,6-dimethylimidazo[1,2-a]pyrazine-3-carboxamide], 3 µM.

Take `Cc1cn2c(C(=O)N[C@H]3CCOC3=O)c(C)nc2c(OCc2c(F)cccc2F)n1` [Example 34, 8-[(2,6-difluorobenzyl)oxy]-2,6-dimethyl-N-[(3S)-2-oxotetrahydrofuran-3-yl]imidazo[1,2-a]pyrazine-3-carboxamide]: the MEC amounted to 3 µM. In the case of `CCC(CO)(CO)NC(=O)c1c(C)nc2c(OCc3c(F)cccc3F)nc(C)cn12` [Example 35, 8-[(2,6-difluorobenzyl)oxy]-N-[1-hydroxy-2-(hydroxymethyl)butan-2-yl]-2,6-dimethylimidazo[1,2-a]pyrazine-3-carboxamide], the MEC came out at 3 µM. For the compound `Cc1cn2c(C(=O)NC3CC4CCCC(C3)N4C)c(C)nc2c(OCc2c(F)cccc2F)n1` (stereo not shown) [Example 36, 8-[(2,6-difluorobenzyl)oxy]-2,6-dimethyl-N-(9-methyl-9-azabicyclo[3.3.1]non-3-yl)imidazo[1,2-a]pyrazine-3-carboxamide], the MEC stood at 1 µM.

As for `Cc1cn2c(C(=O)NOCCO)c(C)nc2c(OCc2c(F)cccc2F)n1` [Example 44, 8-[(2,6-Difluorobenzyl)oxy]-N-(2-hydroxyethoxy)-2,6-dimethylimidazo[1,2-a]pyrazine-3-carboxamide], the MEC was 10 µM. Under `Cc1cn2c(C(=O)NN3CCOCC3)c(C)nc2c(OCc2c(F)cccc2F)n1` [Example 45, 8-[(2,6-difluorobenzyl)oxy]-2,6-dimethyl-N-(morpholin-4-yl)imidazo[1,2-a]pyrazine-3-carboxamide] stands 10 µM.
